Consider `O=C(NCCc1ccccc1)c1ccccc1-c1ccccc1CNS(=O)(=O)c1cccc(F)c1` [Example 3 e, 2′-(3-Fluorophenylsulfonylaminomethyl)biphenyl-2-carboxylic acid phenethylamide], for which the melting point (in general, the temperature of the solid-liquid transition) is 153 °C.

`CC(C)CCNC(=O)c1ccccc1-c1ccccc1CNS(=O)(=O)c1ccc(F)cc1` [Example 3 m, 2′-(4-Fluorophenylsulfonylaminomethyl)biphenyl-2-carboxylic acid (3-methylbutyl)amide] registered a melting point of 149 °C.

`CC(C)CCNC(=O)c1ccccc1-c1ccccc1CNS(=O)(=O)c1cccc(F)c1` [Example 3 n, 2′-(3-Fluorophenylsulfonylaminomethyl)biphenyl-2-carboxylic acid (3-methylbutyl)amide] displayed a melting point of 141 °C.

With `CC(C)CCNC(=O)c1ccccc1-c1ccccc1CNC(=O)c1ccccc1` [Example 4 a, 2′-(Benzoylaminomethyl)biphenyl-2-carboxylic acid (3-methylbutyl)amide], the melting point amounted to 147 °C.

`CC(C)CCNC(=O)c1ccccc1-c1ccccc1CNS(=O)(=O)c1ccccc1` [Example 3 l, 2′-(Phenylsulfonylaminomethyl)biphenyl-2-carboxylic acid (3-methyl butyl)amide] yielded a melting point of 127 °C.

For the molecule `O=C(NCc1ccccc1)c1ccccc1-c1ccccc1CNS(=O)(=O)c1cccc(C(F)(F)F)c1` [Example 3 g, 2′-(3-Trifluoromethylphenylsulfonylaminomethyl)biphenyl-2-carboxylic acid benzylamide], the melting point came out at 126 °C.

`CC(C)CCNC(=O)c1ccccc1-c1ccccc1CNC(=O)OCc1ccccc1` [Example 2 b, 2′-(Benzyloxycarbonylaminomethyl)biphenyl-2-carboxylic acid (3-methylbutyl)amide] returned a melting point of 112 °C.

In the case of `O=C(NCCc1ccccn1)c1ccccc1-c1ccccc1CNS(=O)(=O)c1cccc(F)c1` [Example 3 r, 2′-(3-Fluorophenylsulfonylaminomethyl)biphenyl-2-carboxylic acid 2-(2-pyridyl)ethylamide], the melting point turned out to be 123 °C.

`CCc1ccc(S(=O)(=O)NCc2ccccc2-c2ccccc2C(=O)NCCc2ccccc2)cc1` [Example 3 f, 2′-(4-Ethylphenylsulfonylaminomethyl)biphenyl-2-carboxylic acid phenethylamide] had a melting point of 163 °C.

As for `O=C(NCc1ccccc1-c1ccccc1C(=O)NCCc1ccccn1)Nc1ccccc1` [Example 5 b, 2′-[(3-Phenylureido)methyl]biphenyl-2-carboxylic acid 2-(2-pyridyl)ethylamide], the melting point stood at 99 °C.

For the molecule `O=C(NCCc1ccccc1)c1ccccc1-c1ccccc1CNS(=O)(=O)c1cccc([N+](=O)[O-])c1` [Example 3 c, 2′-(3-Nitrophenylsulfonylaminomethyl)biphenyl-2-carboxylic acid phenethylamide], the melting point amounted to 145 °C.

As for `CC(C)CCNC(=O)c1ccccc1-c1ccccc1CNC(=O)Nc1ccccc1` [Example 5 a, 2′-[(3-Phenylureido)methyl]biphenyl-2-carboxylic acid (3-methylbutyl)amide], the melting point stood at 194 °C.

`CC(=O)c1ccc(S(=O)(=O)NCc2ccccc2-c2ccccc2C(=O)NCCc2ccccc2)cc1` [Example 3 b, 2′-(4-Acetylphenylsulfonylaminomethyl)biphenyl-2-carboxylic acid phenethylamide]: the melting point was 145 °C.

Take `O=C(NCc1ccccc1)c1ccccc1-c1ccccc1CNS(=O)(=O)c1ccccc1` [Example 3 j, 2′-(3-Phenylsulfonylaminomethyl)biphenyl-2-carboxylic acid benzylamide]: the melting point was 162 °C.

Molecule `O=C(NCCc1ccccn1)c1ccccc1-c1ccccc1CNS(=O)(=O)c1ccc(F)cc1` [Example 3 q, 2′-(4-Fluorophenylsulfonylaminomethyl)biphenyl-2-carboxylic acid 2-(2-pyridyl)ethylamide] displayed a melting point of 130 °C.

`O=C(NCc1ccccc1-c1ccccc1C(=O)NCCc1ccccn1)c1ccccc1` [Example 4 b, 2′-(Benzoylaminomethyl)biphenyl-2-carboxylic acid 2-(2-pyridyl)ethylamide] returned a melting point of 135 °C.

`O=C(NCCc1ccccn1)c1ccccc1-c1ccccc1CNS(=O)(=O)c1ccccc1` [Example 3 p] displayed a melting point of 131 °C.

For the molecule `O=C(NCc1ccccc1)c1ccccc1-c1ccccc1CNS(=O)(=O)c1cccc([N+](=O)[O-])c1` [Example 3 i, 2′-(3-Nitrophenylsulfonylaminomethyl)biphenyl-2-carboxylic acid benzylamide], the melting point turned out to be 175 °C.

Source of the values: patent US7514582B2, “2′-substituted 1,1′-biphenyl-2-carboxamides, processes for their preparation, their use as medicaments, and pharmaceutical preparations comprising them” (Sanofi-Aventis Deutschland GmbH, priority 1999, dated 2009).
